In patent publication US12559492B2, “BRAF degraders” (C4 Therapeutics, Inc., priority 2020, dated 2026):

Target: BRAF^V600E protein (Homo sapiens, UniProt P15056, V600E)
Experiment: HiBiT cellular BRAF V600E degradation assay
Format: cell-based
Conditions: 24 h incubation; for DC50: A375.10 cells (HiBiT tag knocked in at N-terminal of BRAF V600E), concentration at which 50% of total cellular BRAF V600E is degraded; for Emax / HiBit 24 h Emax: A375.10 cells, Emax = amount of residual protein remaining in the cell after compound treatment; for Emax: read-out: HiBit 24 h Emax

Chain of BRAF^V600E protein (P15056 whole entry V600E): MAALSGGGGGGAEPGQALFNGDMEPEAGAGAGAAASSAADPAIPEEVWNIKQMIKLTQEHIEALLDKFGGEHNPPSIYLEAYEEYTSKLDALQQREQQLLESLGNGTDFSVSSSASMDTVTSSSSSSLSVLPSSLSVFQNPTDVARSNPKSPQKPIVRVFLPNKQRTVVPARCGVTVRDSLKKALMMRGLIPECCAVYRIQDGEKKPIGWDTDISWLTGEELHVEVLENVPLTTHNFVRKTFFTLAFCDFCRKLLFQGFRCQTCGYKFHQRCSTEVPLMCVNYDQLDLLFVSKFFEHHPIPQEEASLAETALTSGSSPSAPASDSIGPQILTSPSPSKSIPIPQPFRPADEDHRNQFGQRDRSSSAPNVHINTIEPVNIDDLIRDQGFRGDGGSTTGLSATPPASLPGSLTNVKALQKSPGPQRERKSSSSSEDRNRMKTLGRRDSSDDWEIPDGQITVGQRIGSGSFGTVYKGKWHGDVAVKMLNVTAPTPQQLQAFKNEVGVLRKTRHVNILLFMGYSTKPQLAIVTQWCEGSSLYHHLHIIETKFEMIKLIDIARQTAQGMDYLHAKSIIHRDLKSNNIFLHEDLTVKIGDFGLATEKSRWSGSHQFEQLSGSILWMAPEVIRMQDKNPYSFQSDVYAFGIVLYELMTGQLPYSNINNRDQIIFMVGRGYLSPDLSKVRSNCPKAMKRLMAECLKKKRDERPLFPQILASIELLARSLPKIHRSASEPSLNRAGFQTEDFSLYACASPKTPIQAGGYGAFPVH

Row | DC50 [µM] | Emax [%] | DC50 (formic acid) [µM] | HiBit 24 h Emax (formic acid) [%] | HiBit 24 h Emax [%] | Compound
1 | 0.04 | 16 |  |  |  | CCN(C)S(=O)(=O)Nc1ccc(F)c(C(=O)c2c[nH]c3ncc(-c4ccc(N5CCC(NC(=O)CN6CCC(c7ccc(OC8CCC(=O)NC8=O)cc7)CC6)CC5)nc4)cc23)c1F (stereo not shown) [Example A61, 2-[4-[4-(2,6-Dioxopiperidin-3-yl)oxyphenyl]piperidin-1-yl]-N-[1-[5-[3-[3-[[ethyl(methyl)sulfamoyl]amino]-2,6-difluorobenzoyl]-1H-pyrrolo[2,3-b]pyridin-5-yl]pyridin-2-yl]piperidin-4-yl]acetamide;formic acid]
2 | 0.008 | 18 |  |  |  | CCN(C)S(=O)(=O)Nc1ccc(F)c(C(=O)c2c[nH]c3ncc(-c4cnc(N5CCC(NC(=O)CN6CCC(c7ccc(NC8CCC(=O)NC8=O)cc7)CC6)CC5)nc4)cc23)c1F (stereo not shown) [Example A62, 2-[4-[4-[(2,6-Dioxopiperidin-3-yl)amino]phenyl]piperidin-1-yl]-N-[1-[5-[3-[3-[[ethyl(methyl)sulfamoyl]amino]-2,6-difluorobenzoyl]-1H-pyrrolo[2,3-b]pyridin-5-yl]pyrimidin-2-yl]piperidin-4-yl]acetamide;formic acid]
3 | 0.067 | 13 |  |  |  | CCN(C)S(=O)(=O)Nc1ccc(F)c(C(=O)c2c[nH]c3ncc(-c4ccc(N5CCC(NC(=O)CN6CCC(c7ccc(OC8CCC(=O)NC8=O)cn7)CC6)CC5)cc4)cc23)c1F (stereo not shown) [Example A64, 2-[4-[5-(2,6-Dioxopiperidin-3-yl)oxypyridin-2-yl]piperidin-1-yl]-N-[1-[4-[3-[3-[[ethyl(methyl)sulfamoyl]amino]-2,6-difluorobenzoyl]-1H-pyrrolo[2,3-b]pyridin-5-yl]phenyl]piperidin-4-yl]acetamide;formic acid]
4 | 0.151 | 18 |  |  |  | CCN(C)S(=O)(=O)Nc1ccc(F)c(C(=O)c2c[nH]c3ncc(-c4ccc(N5CCC(NC(=O)CN6CCC(c7ccc(OC8CCC(=O)NC8=O)cn7)CC6)CC5)nc4)cc23)c1F (stereo not shown) [Example A65, 2-[4-[5-(2,6-Dioxopiperidin-3-yl)oxypyridin-2-yl]piperidin-1-yl]-N-[1-[5-[3-[3-[[ethyl(methyl)sulfamoyl]amino]-2,6-difluorobenzoyl]-1H-pyrrolo[2,3-b]pyridin-5-yl]pyridin-2-yl]piperidin-4-yl]acetamide;formic acid]
5 | 0.017 | 13 |  |  |  | CCN(C)S(=O)(=O)Nc1ccc(F)c(C(=O)c2c[nH]c3ncc(-c4ccc(N5CCC(NC(=O)CN6CCC(c7ccc(NC8CCC(=O)NC8=O)cc7)CC6)CC5)nc4)cc23)c1F (stereo not shown) [Example A66, 2-[4-[4-[(2,6-Dioxopiperidin-3-yl)amino]phenyl]piperidin-1-yl]-N-[1-[5-[3-[3-[[ethyl(methyl)sulfamoyl]amino]-2,6-difluorobenzoyl]-1H-pyrrolo[2,3-b]pyridin-5-yl]pyridin-2-yl]piperidin-4-yl]acetamide; formic acid]
6 |  |  | 0.007 | 11 |  | CCN(C)S(=O)(=O)Nc1ccc(F)c(C(=O)c2c[nH]c3ncc(-c4ccc(N5CCC(NC(=O)CN6CCC(c7ccc(NC8CCC(=O)NC8=O)cc7)CC6)CC5)cc4)cc23)c1F.O=CO (stereo not shown) [Example A67, 2-[4-[4-[(2,6-Dioxopiperidin-3-yl)amino]phenyl]piperidin-1-yl]-N-[1-[4-[3-[3-[[ethyl(methyl)sulfamoyl]amino]-2,6-difluorobenzoyl]-1H-pyrrolo[2,3-b]pyridin-5-yl]phenyl]piperidin-4-yl]acetamide; formic acid]
7 | 0.05 | 11 |  |  |  | CCN(C)S(=O)(=O)Nc1ccc(F)c(C(=O)c2c[nH]c3ncc(-c4cnc(N5CCN(C(=O)CN6CCN(c7ccc(OC8CCC(=O)NC8=O)cn7)CC6)CC5)nc4)cc23)c1F (stereo not shown) [Example A68, 5-[2-[4-[2-[4-[5-(2,6-Dioxopiperidin-3-yl)oxypyridin-2-yl]piperazin-1-yl]acetyl]piperazin-1-yl]pyrimidin-5-yl]-3-[3-[[ethyl(methyl)sulfamoyl]amino]-2,6-difluorobenzoyl]-1H-pyrrolo[2,3-b]pyridine]
8 | 0.007 |  |  |  | 12 | CCN(C)S(=O)(=O)Nc1ccc(F)c(C(=O)c2c[nH]c3ncc(-c4cnc(N5CCN(C(=O)CN6CCC(c7ccc(NC8CCC(=O)NC8=O)cn7)CC6)CC5)nc4)cc23)c1F (stereo not shown) [Example A69, 5-[2-[4-[2-[4-[5-[(2,6-Dioxopiperidin-3-yl)amino]pyridin-2-yl]piperidin-1-yl]acetyl]piperazin-1-yl]pyrimidin-5-yl]-3-[3-[[ethyl(methyl)sulfamoyl]amino]-2,6-difluorobenzoyl]-1H-pyrrolo[2,3-b]pyridine]
9 | 0.019 | 18 |  |  |  | CCN(C)S(=O)(=O)Nc1ccc(F)c(C(=O)c2c[nH]c3ncc(-c4cnc(N5CCN(C(=O)CN6CCC(c7ccc(N(C)C8CCC(=O)NC8=O)cc7)CC6)CC5)nc4)cc23)c1F (stereo not shown) [Example A70, 5-[2-[4-[2-[4-[4-[(2,6-Dioxopiperidin-3-yl)-methylamino]phenyl]piperidin-1-yl]acetyl]piperazin-1-yl]pyrimidin-5-yl]-3-[3-[[ethyl(methyl)sulfamoyl]amino]-2,6-difluorobenzoyl]-1H-pyrrolo[2,3-b]pyridine]
10 | 0.00447 | 16.1 |  |  |  | O=C1CCC(Nc2ccc(C3CCN(CC(=O)N4CCN(c5ccc(-c6cnc7[nH]cc(C(=O)c8c(F)ccc(NS(=O)(=O)N9CCCC9)c8F)c7c6)cn5)CC4)CC3)cc2)C(=O)N1 (stereo not shown) [Example A72, N-[3-[5-[6-[4-[2-[4-[4-[(2,6-Dioxopiperidin-3-yl)amino]phenyl]piperidin-1-yl]acetyl]piperazin-1-yl]pyridin-3-yl]-1H-pyrrolo[2,3-b]pyridine-3-carbonyl]-2,4-difluorophenyl]pyrrolidine-1-sulfonamide]
11 | 0.006 | 19 |  |  |  | O=C1CCC(Nc2ccc(N3CCN(CC(=O)N4CCN(c5ccc(-c6cnc7[nH]cc(C(=O)c8c(F)ccc(NS(=O)(=O)N9CCCC9)c8F)c7c6)cn5)CC4)CC3)cc2)C(=O)N1 (stereo not shown) [Example A73, N-[3-[5-[6-[4-[2-[4-[4-[(2,6-Dioxopiperidin-3-yl)amino]phenyl]piperazin-1-yl]acetyl]piperazin-1-yl]pyridin-3-yl]-1H-pyrrolo[2,3-b]pyridine-3-carbonyl]-2,4-difluorophenyl]pyrrolidine-1-sulfonamide]
12 | 0.007 | 19 |  |  |  | O=C1CCC(Nc2ccc(N3CCN(CC(=O)N4CCN(c5ccc(-c6cnc7[nH]cc(C(=O)c8c(F)ccc(NS(=O)(=O)N9CC[C@@H](F)C9)c8F)c7c6)cc5)CC4)CC3)cc2)C(=O)N1 (stereo partly drawn) [Example A74, (3R)—N-[3-[5-[4-[4-[2-[4-[4-[(2,6-Dioxopiperidin-3-yl)amino]phenyl]piperazin-1-yl]acetyl]piperazin-1-yl]phenyl]-1H-pyrrolo[2,3-b]pyridine-3-carbonyl]-2,4-difluorophenyl]-3-fluoropyrrolidine-1-sulfonamide]
13 | 0.00446 | 16.2 |  |  |  | O=C1CCC(Nc2ccc(C3CCN(CC(=O)N4CCN(c5ccc(-c6cnc7[nH]cc(C(=O)c8c(F)ccc(NS(=O)(=O)N9CC[C@@H](F)C9)c8F)c7c6)cc5)CC4)CC3)cc2)C(=O)N1 (stereo partly drawn) [Example A75, (3R)—N-[3-[5-[4-[4-[2-[4-[4-[(2,6-Dioxopiperidin-3-yl)amino]phenyl]piperidin-1-yl]acetyl]piperazin-1-yl]phenyl]-1H-pyrrolo[2,3-b]pyridine-3-carbonyl]-2,4-difluorophenyl]-3-fluoropyrrolidine-1-sulfonamide]
14 | 0.0149 | 16.9 |  |  |  | CCN(C)S(=O)(=O)Nc1ccc(F)c(C(=O)c2c[nH]c3ncc(-c4ccc(N5CC6(CN(C(=O)CN7CCC(c8ccc(NC9CCC(=O)NC9=O)cc8)CC7)C6)C5)nc4)cc23)c1F (stereo not shown) [Example A76, 5-[6-[2-[2-[4-[4-[(2,6-dioxopiperidin-3-yl)amino]phenyl]piperidin-1-yl]acetyl]-2,6-diazaspiro[3.3]heptan-6-yl]pyridin-3-yl]-3-[3-[[ethyl(methyl)sulfamoyl]amino]-2,6-difluorobenzoyl]-1H-pyrrolo[2,3-b]pyridine]
15 | 0.047 | 31 |  |  |  | CCN(C)S(=O)(=O)Nc1ccc(F)c(C(=O)c2c[nH]c3ncc(-c4ccc(N5CC6(CN(C(=O)CN7CCN(c8ccc(NC9CCC(=O)NC9=O)cc8)CC7)C6)C5)nc4)cc23)c1F (stereo not shown) [Example A77, 5-[6-[2-[2-[4-[4-[(2,6-Dioxopiperidin-3-yl)amino]phenyl]piperazin-1-yl]acetyl]-2,6-diazaspiro[3.3]heptan-6-yl]pyridin-3-yl]-3-[3-[[ethyl(methyl)sulfamoyl]amino]-2,6-difluorobenzoyl]-1H-pyrrolo[2,3-b]pyridine]
16 | 0.00893 | 15.4 |  |  |  | CCN(C)S(=O)(=O)Nc1ccc(F)c(C(=O)c2c[nH]c3ncc(-c4cnc(N5CCN(C(=O)[C@H]6C[C@@H](N7CCC(c8ccc(NC9CCC(=O)NC9=O)cc8)CC7)C6)CC5)nc4)cc23)c1F (stereo partly shown) [Example A78, 5-[2-[4-[3-[4-[4-[(2,6-Dioxopiperidin-3-yl)amino]phenyl]piperidin-1-yl]cyclobutanecarbonyl]piperazin-1-yl]pyrimidin-5-yl]-3-[3-[[ethyl(methyl)sulfamoyl]amino]-2,6-difluorobenzoyl]-1H-pyrrolo[2,3-b]pyridine]
17 | 0.06 | 22 |  |  |  | CCN(C)S(=O)(=O)Nc1ccc(F)c(C(=O)c2c[nH]c3ncc(-c4cnc(N5CCN(C(=O)CN6CCC(n7cc(NC8CCC(=O)NC8=O)cn7)CC6)CC5)nc4)cc23)c1F (stereo not shown) [Example A79, 5-[2-[4-[2-[4-[4-[(2,6-Dioxopiperidin-3-yl)amino]pyrazol-1-yl]piperidin-1-yl]acetyl]piperazin-1-yl]pyrimidin-5-yl]-3-[3-[[ethyl(methyl)sulfamoyl]amino]-2,6-difluorobenzoyl]-1H-pyrrolo[2,3-b]pyridine]
